Measurements: US11925690B2, “Bifunctional molecules for targeting Rpn11” (AMPHISTA THERAPEUTICS LTD, priority 2018, dated 2024)

Legend:
Type in all cases: cell-based
Brd4 (S) = biological target: T1, Brd4 (S) (Homo sapiens, UniProt O60885); assay: Time-dependent BET degradation, immunoblot; set-up: Dmax: dose or concentration left out as unconfirmed; conditions: HeLa; for Abs. T1/2 / T1/2: 1 μM; for Abs. T1/2: time to deplete 50% of the protein relative to DMSO; for T1/2: time to reach 50% of the Dmax
T1 construct: endogenous in cells; host or cells: HEK293 (CRL-1573), HeLa (CCL-2)
Experimental: (§1) Immunoblotting. Proteins were separated by SDS-PAGE on NuPage 4-12% Bis-Tris gels, followed by transfer to Amersham Protran 0.45 NC nitrocellulose membrane (GE Healthcare) using wet transfer. Membranes were blocked using 5% w/v milk in Tris-buffered saline (TBS) with 0.1% Tween-20. Blots were probed (overnight at 4 °C) using anti-Brd2 (Abcam ab139690, 1:2,000 dilution), anti-Brd3 (Abcam ab50818, 1:500 dilution), and anti-Brd4 (Abcam ab128874, 1:1,000 dilution) primary antibodies, as appropriate. The next day, blots were washed with TBST and incubated (1 h at Room temperature) with anti-Tubulin hFAB-rhodamine (BioRad, 12004166) primary antibody, and either anti-rabbit IRDye 800CW (Licor 1:1,000 dilution) or anti-mouse IRDye 800CW (Licor 1:1,000 dilution) secondary antibody. Blots were developed using a Bio-Rad ChemiDoc MP Imaging System, and band quantification was performed using Image Studio software (LiCor). Band intensities were normalized to the tubulin loading control and reported as % of the average 0.1% DMSO vehicle intensity. Degradation data was plotted and analysed using Prism (Graphpad, version 8).
(§2) HEK293 (0.5×10^6) cells were seeded in standard 6-well plates (2 mL medium) overnight before treatment with compounds at 1 μM concentration, with a final DMSO concentration of 0.1% v/v. After incubation for the desired time (0-24 hrs), cells were washed with DPBS (Gibco) and lysed using 85 μL RIPA buffer (Sigma-Aldrich) supplemented with complete Mini EDTA-free protease inhibitor cocktail (Roche) and benzonase. Lysates were clarified by centrifugation (20000 g, 10 min, 4° C.) and the total protein content of the supernatant was quantified using a Bradford colorimetric assay. Samples were prepared using equal amounts of total protein and LDS sample buffer (Invitrogen). Band intensities were normalized to the tubulin loading control and reported as % of the average 0.1% DMSO vehicle intensity. Degradation data was plotted and analysed using Prism (Graphpad, version 8).
(§3) MZ1 and 11JQ17 were used at 1 μM (4 h) for positive and negative controls, respectively. […] T1/2 (h) is the time required to deplete 50% of the protein relative to DMSO.

Brd4 (L) = biological target: T2, Brd4 (L) (Homo sapiens, UniProt O60885); assay: Time-dependent BET degradation, immunoblot; set-up: Dmax: dose or concentration left out as unconfirmed; conditions: HeLa; for Abs. T1/2 / T1/2: 1 μM; for Abs. T1/2: time to deplete 50% of the protein relative to DMSO; for T1/2: time to reach 50% of the Dmax
T2 construct: endogenous in cells; host or cells: HEK293 (CRL-1573), HeLa (CCL-2)
Experimental: as §1, §2, §3

MV4-11 cells = assay: CellTiter-Glo anti-proliferative assay; conditions: MV4-11, 72 h, 5 μM and below compound
Experimental: The anti-proliferative effects of representative compounds and other compounds was measured using the CellTiter-Glo assay (Promega). MV4-11 cells were incubated in a sterile, white, clear-bottomed 384-well cell-culture microplate (Greiner Bio-one), at 2× concentration in RPMI media and a volume of 25 μl. The next day, test compounds were serially diluted in RPMI media to 2× concentration, then added to cells to make a final volume of 50 μl. After a 72 h incubation 25 μl of CellTiter-Glo reagent was added to each well. Following 15 minute incubation the luminescence signal was read on a Pherastar FS. The final concentration of assay components are as follows: 3×10^5 cells/ml, 0.05% DMSO, 5 μM and below compound. Data (FIG. 8) was processed and dose-response curves generated using Prism 8 (Graphpad).

Brd2 = Brd2 (Homo sapiens, UniProt P25440); assay: Time-dependent BET degradation, immunoblot; conditions: HEK293, Brd2, 1 μM; for Dmax at 1 µM: 0-24 hrs; for Abs. T1/2: time to deplete 50% of the protein relative to DMSO; for T1/2: time to reach 50% of the Dmax
Sequence of Brd2 (P25440 whole entry): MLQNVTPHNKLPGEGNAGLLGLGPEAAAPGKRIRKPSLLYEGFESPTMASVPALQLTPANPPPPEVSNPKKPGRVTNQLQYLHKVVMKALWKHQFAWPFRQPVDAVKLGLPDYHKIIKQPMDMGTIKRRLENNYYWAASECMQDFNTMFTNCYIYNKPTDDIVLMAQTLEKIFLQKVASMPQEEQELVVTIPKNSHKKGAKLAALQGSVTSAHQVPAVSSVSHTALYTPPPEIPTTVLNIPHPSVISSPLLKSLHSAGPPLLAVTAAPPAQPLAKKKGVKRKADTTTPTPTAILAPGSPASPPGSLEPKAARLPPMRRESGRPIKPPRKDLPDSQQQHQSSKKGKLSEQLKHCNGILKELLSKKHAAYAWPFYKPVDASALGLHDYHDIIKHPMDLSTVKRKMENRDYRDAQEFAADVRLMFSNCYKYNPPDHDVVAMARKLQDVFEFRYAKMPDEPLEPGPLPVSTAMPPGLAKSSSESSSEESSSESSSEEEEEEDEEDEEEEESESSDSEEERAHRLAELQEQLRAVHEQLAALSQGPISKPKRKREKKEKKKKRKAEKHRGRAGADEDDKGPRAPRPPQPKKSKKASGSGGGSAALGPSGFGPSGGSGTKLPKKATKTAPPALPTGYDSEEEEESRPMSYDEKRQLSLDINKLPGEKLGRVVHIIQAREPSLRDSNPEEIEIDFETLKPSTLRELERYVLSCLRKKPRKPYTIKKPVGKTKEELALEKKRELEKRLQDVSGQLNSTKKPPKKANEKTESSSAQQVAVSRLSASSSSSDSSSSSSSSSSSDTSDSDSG
Experimental: as §1, §2
MZ1 and 11JQ17 were used at 1 μM (4 h) for positive and negative controls, respectively. […]

Brd4 = biological target: T3, Brd4 (Homo sapiens, UniProt O60885); assay: Immunoblot analysis of Brd4 in HEK293 cells (prodrug activity, negative SAR); conditions: HEK293, 1 μM, 4 h, n=3
T3 construct: immunoblot analysis of Brd4 following 4 h treatment of HEK293 cells; endogenous in cells; host or cells: HEK293 (CRL-1573)
Experimental: as §1, with “8). […]” for “8).”
HEK293 (1×10^6) cells incubated with DMSO, 1 μM 11JQ15 or 1 μM 11JQ17 for 4 h with a final DMSO concentration of 0.1% v/v. […] Degradation data was plotted and analysed using Prism (Graphpad, version 8), where bars are mean±SEM of three independent experiments.

[1] = test system: Brd4, c-MYC, cleaved PARP (C-PARP); assay: Immunoblot of Brd4, c-MYC and cleaved PARP in MV4-11 cells
Experimental: MV4-11 (0.7×10^6 cells/mL) were seeded in 10 cm plates (10 mL DMEM supplemented with 10% FBS and L-glutamine) overnight before treatment with compounds at the desired concentration and with a final DMSO concentration of 0.1% v/v. After 6 h incubation time, cells were washed with 2× with DPBS (Gibco) and lysed using 85 μL RIPA buffer (Sigma-Aldrich) supplemented with cOmplete Mini EDTA-free protease inhibitor cocktail (Roche) and benzonase. Lysates were clarified by centrifugation (20000 g, 10 min, 4° C.) and the total protein content of the supernatant was quantified using a Bradford colorimetric assay. Samples were prepared using equal amounts of total protein and LDS sample buffer (Invitrogen). For immunoblot analysis, the following antibodies were used: anti-Brd4 (ab128874, 1:1,000 dilution), anti-cmyc (ab32072, 1:1000 dilution), anti-CPARP (CST-9541T, 1:1,000 dilution), and anti-Tubulin hFAB-rhodamine (BioRad, 12004166, 1:10000 dilution).

[2] = MV4-11, increasing concentrations, 6 h

| Compound | Dmax (Brd4 (S)) [%] | Abs. T1/2 (Brd4 (S)) [h] | T1/2 (Brd4 (S)) [h] | Dmax (Brd4 (L)) [%] | Abs. T1/2 (Brd4 (L)) [h] | T1/2 (Brd4 (L)) [h] | cytotoxicity profile / anti-proliferative effect (FIG. 8) (MV4-11 cells) | Dmax at 1 µM (Brd2) [%] | Abs. T1/2 (Brd2) [h] | T1/2 (Brd2) [h] | Brd4 levels (FIG. 3) (Brd4) | increase in C-PARP compared with JQ1 and 11JQ18 ([1]; MV4-11, 6 h) | Brd4 and c-MYC levels (FIG. 9) [1, 2] | cleaved PARP (FIG. 9) [1, 2] |
| --- | --- | --- | --- | --- | --- | --- | --- | --- | --- | --- | --- | --- | --- | --- |
| Cc1sc2c(c1C)C(c1ccc(Cl)cc1)=N[C@@H](CC(=O)NCCCCNC(=O)c1cc(S)c3ncc(C(=O)NCCc4nccs4)cc3c1)c1nnc(C)n1-2 [Example 11JQ7] | 100 | 3.1 | 3 | 100 | 2.4 | 2.3 | distinct from JQ1 and inactive 11JQ18 | 80 | 3.2 | 1.8 | – | – | – | – |
| Cc1sc2c(c1C)C(c1ccc(Cl)cc1)=N[C@@H](CC(=O)NCCOCCNC(=O)c1cc(SC(=O)c3ccccc3)c3ncc(C(=O)NCCc4nccs4)cc3c1)c1nnc(C)n1-2 [Example 11JQ15] | 90 | 3.3 | 2.8 | 90 | 4.3 | 3.5 | – | 50 | 5.7 | 1.1 | significant depletion of Brd4 levels | – | – | – |
| Cc1sc2c(c1C)C(c1ccc(Cl)cc1)=N[C@@H](CC(=O)NCCCCNC(=O)c1cc(SC(=O)c3ccccc3)c3ncc(C(=O)NCCc4nccs4)cc3c1)c1nnc(C)n1-2 [Example 11JQ16] | – | – | – | – | – | – | distinct from JQ1 and inactive 11JQ18 | 75 | 2.7 | 1.7 | – | significantly greater than inhibitor (JQ1) alone and the negative control (11JQ18) | depletion of Brd4 and c-MYC levels | corresponding increase in cleaved PARP |
